Patent US20050288379A1, “Benzoquinone compounds as anti-cancer agents” (priority 2004, published 2005)

Tested on: Human cancer cell lines Eca-109, AGS, BGC-823, DU145, SPC-A-1, Caco-2, LS-174T, A375, Raji, MCF-7, Bcap-37, HepG2
Assay: In vitro MTT assay of inhibition of cancer cell growth
Format: cell-based
Conditions: 12 human cancer cell lines, 48 hrs incubation, IqA 0.3-100 μg/ml, IqB 0.03-10 μg/ml, absorbance 492 nm, IC50 values calculated but not given
Method: An in vitro assay was conducted to evaluate the efficacy of IqA and IqB in inhibiting the growth of cancer cells.
Human cancer cell lines, i.e., Eca-109 (esophagus carcinoma cell line), AGS and BGC-823 (gastric adenocarcinoma cell lines), DU145 (prostate carcinoma cell line), SPC-A-1 (lung adenocarcinoma cell line), Caco-2 and LS-174T (colonic carcinoma cell lines), A375 (malignant melanoma cell line), Raji (Burkitt's lymphoma cell line), MCF-7 and Bcap-37 (breast carcinoma cell lines), HepG2 (hepatoma cell line), were purchased from the Cell Bank of Shanghai Institute of Cell Biology, Chinese Academy of Sciences, and cultured in Iscove's Modified Dulbecco's Medium (IMDM) containing 10% fetal bovine serum (FBS) in an incubator at 37° C. under 5% CO2. Cells of 70-80% confluence were trypsinized, resuspended in IMDM medium containing 10% FBS at 1×10^5 cells/ml, and seeded in 96-well plates (100 μl in each well). The plates were incubated at 37° C. under 5% CO2 overnight.
IqA and IqB were provided by Shandong Xinhua Pharmaceutical CO. Ltd. IqA and IqB stock solutions were prepared at the concentrations of 10 mg/ml and 1 mg/ml in dimethyl sulfoxide (DMSO), respectively. The IqA solution was diluted with the growth medium into a series of solutions at different concentrations. […]
150 μl of DMSO was added to each well. […] Absorbance was measured at 492 nm using a microplate reader. […]

CCCCCC/C=C\CCCCCCCCCC1=CC(=O)C=C(OC)C1=O [IqA, irisqinone A]
inhibition of the proliferation of cancer cells: effectively inhibited the proliferation

CCCCCCCCCCCCCCCCCC1=CC(=O)C=C(OC)C1=O [IqB, irisquinone B]
inhibition of the proliferation of cancer cells: effectively inhibited the proliferation
